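These data come from cells grown in 96-well plates and exposed to compound for 48 hours at five concentrations. TGI: total growth inhibition.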
Assays:
Test in all cases: growth of human tumour cells (NCI), 48 h
[1] = system: DU-145 prostate
[2] = system: HT29 colon
[3] = system: 786-0 renal
[4] = system: A549 NSCLC
[5] = system: OVCAR-5 ovarian
[6] = system: MDA-N
[7] = system: NCI/ADR-RES ovarian
[8] = system: SNB-75 CNS
[9] = system: HCT-15 colon
[10] = system: A498 renal
[11] = system: MALME-3M melanoma
[12] = system: COLO 205 colon
[13] = system: ACHN renal
[14] = system: SF-268 CNS
[15] = system: UACC-257 melanoma
[16] = system: HOP-92 NSCLC
[17] = system: LOX IMVI melanoma
[18] = system: HCT-116 colon
[19] = system: PC-3 prostate
[20] = system: NCI-H522 lung
[21] = system: SK-MEL-5 melanoma
[22] = system: SK-OV-3 ovarian
[23] = system: NCI-H460 lung
[24] = system: SF-295 CNS
[25] = system: MDA-MB-231 breast
[26] = system: UO-31 renal
[27] = system: NCI-H23 lung
[28] = system: SNB-19 CNS
[29] = system: BT-549 breast
[30] = system: SR leukemia
[31] = system: OVCAR-4 ovarian
[32] = system: T-47D breast
[33] = system: K-562 leukemia
[34] = system: HCC-2998 colon
[35] = system: RPMI-8226 leukemia
[36] = system: MOLT-4 leukemia
[37] = system: U251 CNS
[38] = system: HL-60(TB) leukemia
[39] = system: SF-539 CNS
[40] = system: SN12C renal
[41] = system: IGROV1 ovarian
[42] = system: CAKI-1 renal
[43] = system: HS 578T breast
[44] = system: M14 melanoma
[45] = system: SK-MEL-2 melanoma
[46] = system: HOP-62 NSCLC
[47] = system: SK-MEL-28 melanoma
[48] = system: TK-10 renal
[49] = system: RXF 393 renal
[50] = system: SW-620 colon
[51] = system: MCF7 breast
[52] = system: MDA-MB-435
[53] = system: OVCAR-8 ovarian
[54] = system: OVCAR-3 ovarian
[55] = system: EKVX NSCLC
[56] = system: NCI-H226 lung
[57] = system: UACC-62 melanoma
[58] = system: KM12 colon
[59] = system: CCRF-CEM leukemia

Measured: TGI

N#CCCN(CCC#N)CCN(CCN(CCC#N)CCC#N)CCN(CCC#N)CCC#N
not listed: [57] | [58] | [59]
> 100 µM: all other assays above

O=C(O)C1[C@@H](C(=O)O)C1(Br)CBr (some centres not stated)
not listed: [11] | [59]
> 100 µM: all other assays above

CC1=CN(c2ccccc2)S2=C1c1sc3c(c1N2c1ccc(Br)cc1)CCCC3 (configuration not stated)
not listed: [8] | [11]
> 100 µM: all other assays above

Oc1ccc(-c2nn3c(CCCCCCCCc4nnc5sc(-c6ccc(O)cc6)nn45)nnc3s2)cc1
not listed: [38] | [41]
> 100 µM: all other assays above

CN(C)c1ccc(/C=C/c2nc3ccccc3s2)cc1
not listed: [8] | [42] | [54] | [57]
> 100 µM: all other assays above

Source: PubChem BioAssay (NCI)
